Data reported in patent publication US9067943B2, “[1,2,3]triazolo[4,5-D]pyrimidine derivatives” (priority 2011, dated 2015).
Where two headings read alike, the source gives them in different places.

What was measured:
human CB2 receptors = biological target: T1, human CB2 receptors (Homo sapiens, UniProt P34972); experiment: cAMP assay; format: cell-based
T1 construct: expressed in transfected cells; host or cells: CHO cells
Description: (§1) CHO cells expressing human CB1 or CB2 receptors are seeded 17-24 hours prior to the experiment 50.000 cells per well in a black 96 well plate with flat clear bottom (Corning Costar #3904) in DMEM (Invitrogen No. 31331), 1×HT supplement, with 10% fetal calf serum and incubated at 5% CO2 and 37° C. in a humidified incubator. The growth medium was exchanged with Krebs Ringer Bicarbonate buffer with 1 mM IBMX and incubated at 30° C. for 30 min. Compounds were added to a final assay volume of 100 μl and incubated for 30 min at 30° C. Using the cAMP-Nano-TRF detection kit the assay (Roche Diagnostics) was stopped by the addition of 50 μl lysis reagent (Tris, NaCl, 1.5% Triton X100, 2.5% NP40, 10% NaN3) and 50 μl detection solutions (20 μM mAb Alexa700-cAMP 1:1, and 48 μM Ruthenium-2-AHA-cAMP) and shaken for 2 h at room temperature. The time-resolved energy transfer is measured by a TRF reader (Evotec Technologies GmbH), equipped with a ND:YAG laser as excitation source. The plate is measured twice with the excitation at 355 nm and at the emission with a delay of 100 ns and a gate of 100 ns, total exposure time 10 s at 730 (bandwidth 30 nm) or 645 nm (bandwidth 75 nm), respectively. The FRET signal is calculated as follows: FRET=T730-Alexa730-P(T645-B645) with P=Ru730-B730/Ru645-B645, where T730 is the test well measured at 730 nM, T645 is the test well measured at 645 nm, B730 and B645 are the buffer controls at 730 nm and 645 nm, respectively. cAMP content is determined from the function of a standard curve spanning from 10 μM to 0.1 nM cAMP.
(§2) EC50 values were determined using Activity Base analysis (ID Business Solution, Limited). The EC50 values for a wide range of cannabinoid agonists generated from this assay were in agreement with the values published in the scientific literature.

human CB1 receptors = biological target: T2, human CB1 receptors (Homo sapiens, UniProt P21554); experiment: cAMP assay; format: cell-based
T2 construct: expressed in transfected cells; host or cells: CHO cells
T2 sequence (P21554 whole entry): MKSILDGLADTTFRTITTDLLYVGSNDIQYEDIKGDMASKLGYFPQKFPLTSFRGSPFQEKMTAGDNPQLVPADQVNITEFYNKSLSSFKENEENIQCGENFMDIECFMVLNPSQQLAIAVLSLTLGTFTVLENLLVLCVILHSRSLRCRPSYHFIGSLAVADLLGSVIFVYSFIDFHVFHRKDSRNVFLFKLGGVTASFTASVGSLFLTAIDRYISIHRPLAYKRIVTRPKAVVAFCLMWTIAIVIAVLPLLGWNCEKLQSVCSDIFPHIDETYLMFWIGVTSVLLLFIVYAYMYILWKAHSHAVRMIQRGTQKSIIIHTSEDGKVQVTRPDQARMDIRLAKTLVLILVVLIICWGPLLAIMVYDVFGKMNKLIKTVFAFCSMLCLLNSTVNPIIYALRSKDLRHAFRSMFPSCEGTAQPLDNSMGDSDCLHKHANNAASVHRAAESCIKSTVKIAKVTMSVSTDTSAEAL
Description: as §1, §2

T1 sequence (P34972 whole entry): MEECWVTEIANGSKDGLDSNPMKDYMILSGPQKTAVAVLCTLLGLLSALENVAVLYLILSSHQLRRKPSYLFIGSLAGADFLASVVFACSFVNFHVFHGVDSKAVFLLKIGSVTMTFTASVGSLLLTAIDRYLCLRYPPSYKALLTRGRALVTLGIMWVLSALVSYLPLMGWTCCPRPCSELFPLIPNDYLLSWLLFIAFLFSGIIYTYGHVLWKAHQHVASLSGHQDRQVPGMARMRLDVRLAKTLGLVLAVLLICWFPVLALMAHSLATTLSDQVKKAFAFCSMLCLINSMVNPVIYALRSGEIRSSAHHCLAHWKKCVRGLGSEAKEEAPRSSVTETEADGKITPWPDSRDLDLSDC

Compound: 5-tert-Butyl-2-(1-cyclopropyl-1H-tetrazol-5-ylmethyl)-7-(2-oxa-6-aza-spiro[3.3]hept-6-yl)-2H-[1,2,3]triazolo[4,5-d]pyrimidine [Example 105]
- EC50 (human CB2 receptors; functional cAMP assay, CHO cells expressing human CB2, read-out: human CB2 EC50): 110 nM
- EC50 (human CB1 receptors; functional cAMP assay, head printed human CB2 (probably human CB1), read-out: human CB2 EC50): > 10000 nM

Compound: CC(C)(C)c1nc(N2CCOCC2)c2nn(Cc3ccccc3Cl)nc2n1 [Example 1, 5-tert-Butyl-2-(2-chloro-benzyl)-7-morpholin-4-yl-2H-[1,2,3]triazolo[4,5d]pyrimidine]
- EC50 (human CB2 receptors): 3.3 nM
- EC50 (human CB1 receptors): > 10000 nM

Compound: CC(C)(C)c1nc(N2CCOCC2)c2nn(Cc3ccc(F)cc3Cl)nc2n1 [Example 2, 5-tert-Butyl-2-(2-chloro-4-fluoro-benzyl)-7-morpholin-4-yl-2H-[1,2,3]triazolo[4,5-d]pyrimidine]
- EC50 (human CB2 receptors): 2.2 nM
- EC50 (human CB1 receptors): > 10000 nM

Compound: CCn1nc2nc(C(C)(C)C)nc(N3CCC(F)(F)C3)c2n1 [Example 3, 5-tert-Butyl-7-(3,3-difluoro-pyrrolidin-1-yl)-2-ethyl-2H-[1,2,3]triazolo[4,5-d]pyrimidine]
- EC50 (human CB2 receptors): 18.5 nM
- EC50 (human CB1 receptors): > 10000 nM

Compound: COCCn1nc2nc(C(C)(C)C)nc(N3CCC(F)(F)C3)c2n1 [Example 4, 5-tert-Butyl-7-(3,3-difluoro-pyrrolidin-1-yl)-2-(2-methoxy-ethyl)-2H-[1,2,3]triazolo[4,5-d]pyrimidine]
- EC50 (human CB2 receptors): 8 nM
- EC50 (human CB1 receptors): > 10000 nM

Compound: CC(C)(C)c1nc(N2CCC(F)(F)C2)c2nn(CCO)nc2n1 [Example 5, 2-[5-tert-Butyl-7-(3,3-difluoro-pyrrolidin-1-yl)-[1,2,3]triazolo[4,5-d]pyrimidin-2-yl]-ethanol]
- EC50 (human CB2 receptors): 64.7 nM
- EC50 (human CB1 receptors): > 10000 nM

Compound: CC(C)(C)c1nc(N2CCC(F)(F)C2)c2nn(CC3CCCCC3)nc2n1 [Example 6, 5-tert-Butyl-2-cyclohexylmethyl-7-(3,3-difluoro-pyrrolidin-1-yl)-2H-[1,2,3]triazolo[4,5-d]pyrimidine]
- EC50 (human CB2 receptors): 0.5 nM
- EC50 (human CB1 receptors): 306 nM

Compound: CC(C)(C)c1nc(N2CCC(F)(F)C2)c2nn(Cc3cccc(Cl)c3)nc2n1 [Example 7, 5-tert-Butyl-2-(3-chloro-benzyl)-7-(3,3-difluoro-pyrrolidin-1-yl)-2H-[1,2,3]triazolo[4,5-d]pyrimidine]
- EC50 (human CB2 receptors): 4.1 nM
- EC50 (human CB1 receptors): > 10000 nM

Compound: CC(C)(C)c1nc(N2CCC(F)(F)C2)c2nn(Cc3ccc(Cl)cc3)nc2n1 [Example 8, 5-tert-Butyl-2-(4-chloro-benzyl)-7-(3,3-difluoro-pyrrolidin-1-yl)-2H-[1,2,3]triazolo[4,5-d]pyrimidine]
- EC50 (human CB2 receptors): 6.5 nM
- EC50 (human CB1 receptors): > 10000 nM

Compound: CC(C)(C)c1nc(N2CCC(F)(F)C2)c2nn(Cc3cccc(Cl)c3Cl)nc2n1 [Example 9, 5-tert-Butyl-2-(2,3-dichloro-benzyl)-7-(3,3-difluoro-pyrrolidin-1-yl)-2H-[1,2,3]triazolo[4,5-d]pyrimidine]
- EC50 (human CB2 receptors): 3.4 nM
- EC50 (human CB1 receptors): > 10000 nM

Compound: CC(C)(C)c1nc(N2CCC(F)(F)C2)c2nn(Cc3ccc(Cl)cc3Cl)nc2n1 [Example 10, 5-tert-Butyl-2-(2,4-dichloro-benzyl)-7-(3,3-difluoro-pyrrolidin-1-yl)-2H-[1,2,3]triazolo[4,5-d]pyrimidine]
- EC50 (human CB2 receptors): 4.1 nM
- EC50 (human CB1 receptors): > 10000 nM

Compound: CC(C)(C)c1nc(N2CCC(F)(F)C2)c2nn(Cc3cc(Cl)ccc3Cl)nc2n1 [Example 11, 5-tert-Butyl-2-(2,5-dichloro-benzyl)-7-(3,3-difluoro-pyrrolidin-1-yl)-2H-[1,2,3]triazolo[4,5-d]pyrimidine]
- EC50 (human CB2 receptors): 1.2 nM
- EC50 (human CB1 receptors): > 10000 nM

Compound: CC(C)(C)c1nc(N2CCC(F)(F)C2)c2nn(Cc3c(Cl)cccc3Cl)nc2n1 [Example 12, 5-tert-Butyl-2-(2,6-dichloro-benzyl)-7-(3,3-difluoro-pyrrolidin-1-yl)-2H-[1,2,3]triazolo[4,5-d]pyrimidine]
- EC50 (human CB2 receptors): 1.5 nM
- EC50 (human CB1 receptors): > 10000 nM

Compound: CC(C)(C)c1nc(N2CCC(F)(F)C2)c2nn(Cc3ccc(F)cc3Cl)nc2n1 [Example 13, 5-tert-Butyl-2-(2-chloro-4-fluoro-benzyl)-7-(3,3-difluoro-pyrrolidin-1-yl)-2H-[1,2,3]triazolo[4,5-d]pyrimidine]
- EC50 (human CB2 receptors): 1 nM
- EC50 (human CB1 receptors): > 10000 nM

Compound: CC(C)(C)c1nc(N2CCC(F)(F)C2)c2nn(Cc3c(F)cccc3Cl)nc2n1 [Example 14, 5-tert-Butyl-2-(2-chloro-6-fluoro-benzyl)-7-(3,3-difluoro-pyrrolidin-1-yl)-2H-[1,2,3]triazolo[4,5-d]pyrimidine]
- EC50 (human CB2 receptors): 0.5 nM
- EC50 (human CB1 receptors): 65 nM

Compound: CC(C)(C)c1nc(N2CCC(F)(F)C2)c2nn(Cc3ccccn3)nc2n1 [Example 15, 5-tert-Butyl-7-(3,3-difluoro-pyrrolidin-1-yl)-2-pyridin-2-ylmethyl-2H-[1,2,3]triazolo[4,5-d]pyrimidine]
- EC50 (human CB2 receptors): 0.7 nM
- EC50 (human CB1 receptors): 210 nM

Compound: CC(C)(C)c1nc(N2CCC(F)(F)C2)c2nn(Cc3cccnc3)nc2n1 [Example 16, 5-tert-Butyl-7-(3,3-difluoro-pyrrolidin-1-yl)-2-pyridin-3-ylmethyl-2H-[1,2,3]triazolo[4,5-d]pyrimidine]
- EC50 (human CB2 receptors): 3.9 nM
- EC50 (human CB1 receptors): > 10000 nM

Compound: CC(C)(C)c1nc(N2CCC(F)(F)C2)c2nn(Cc3ccncc3)nc2n1 [Example 17, 5-tert-Butyl-7-(3,3-difluoro-pyrrolidin-1-yl)-2-pyridin-4-ylmethyl-2H-[1,2,3]triazolo[4,5-d]pyrimidine]
- EC50 (human CB2 receptors): 0.8 nM
- EC50 (human CB1 receptors): > 10000 nM

Compound: CC(C)(C)c1nc(N2CCC(F)(F)C2)c2nn(CC(F)(F)F)nc2n1 [Example 18, 5-tert-Butyl-7-(3,3-difluoro-pyrrolidin-1-yl)-2-(2,2,2-trifluoro-ethyl)-2H-[1,2,3]triazolo[4,5-d]pyrimidine]
- EC50 (human CB2 receptors): 1.4 nM
- EC50 (human CB1 receptors): > 10000 nM

Compound: CC(C)(C)c1nc(N2CCC(F)(F)C2)c2nn(Cc3cc(F)c(F)cc3Cl)nc2n1 [Example 19, 5-tert-Butyl-2-(2-chloro-4,5-difluoro-benzyl)-7-(3,3-difluoro-pyrrolidin-1-yl)-2H-[1,2,3]triazolo[4,5-d]pyrimidine]
- EC50 (human CB2 receptors): 2.2 nM
- EC50 (human CB1 receptors): > 10000 nM

Compound: CC(C)(C)c1nc(N2CCC(F)(F)C2)c2nn(Cc3c(F)ccc(F)c3Cl)nc2n1 [Example 20, 5-tert-Butyl-2-(2-chloro-3,6-difluoro-benzyl)-7-(3,3-difluoro-pyrrolidin-1-yl)-2H-[1,2,3]triazolo[4,5-d]pyrimidine]
- EC50 (human CB2 receptors): 0.2 nM
- EC50 (human CB1 receptors): 34 nM

Compound: CC(C)(C)c1nc(N2CCC(F)(F)C2)c2nn(Cc3ccccc3Br)nc2n1 [Example 21, 2-(2-Bromo-benzyl)-5-tert-butyl-7-(3,3-difluoro-pyrrolidin-1-yl)-2H-[1,2,3]triazolo[4,5-d]pyrimidine]
- EC50 (human CB2 receptors): 0.1 nM
- EC50 (human CB1 receptors): 183 nM

Compound: CC(C)(C)c1nc(N2CCC(F)(F)C2)c2nn(Cc3ccccc3C(F)(F)F)nc2n1 [Example 22, 5-tert-Butyl-7-(3,3-difluoro-pyrrolidin-1-yl)-2-(2-trifluoromethyl-benzyl)-2H-[1,2,3]triazolo[4,5-d]pyrimidine]
- EC50 (human CB2 receptors): 0.2 nM
- EC50 (human CB1 receptors): > 10000 nM

Compound: COc1ccccc1Cn1nc2nc(C(C)(C)C)nc(N3CCC(F)(F)C3)c2n1 [Example 23, 5-tert-Butyl-7-(3,3-difluoro-pyrrolidin-1-yl)-2-(2-methoxy-benzyl)-2H-[1,2,3]triazolo[4,5-d]pyrimidine]
- EC50 (human CB2 receptors): 0.2 nM
- EC50 (human CB1 receptors): 86 nM

Compound: CC(C)(C)c1nc(N2CCC(F)(F)C2)c2nn(Cc3ccccc3OC(F)(F)F)nc2n1 [Example 24, 5-tert-Butyl-7-(3,3-difluoro-pyrrolidin-1-yl)-2-(2-trifluoromethoxy-benzyl)-2H-[1,2,3]triazolo[4,5-d]pyrimidine]
- EC50 (human CB2 receptors): 0.4 nM
- EC50 (human CB1 receptors): > 10000 nM

Compound: CC(C)(C)c1nc(N2CCC(F)(F)C2)c2nn(Cc3ccccc3C#N)nc2n1 [Example 25, 2-[5-tert-Butyl-7-(3,3-difluoro-pyrrolidin-1-yl)-[1,2,3]triazolo[4,5-d]pyrimidin-2-ylmethyl]-benzonitrile]
- EC50 (human CB2 receptors): 0.1 nM
- EC50 (human CB1 receptors): 205 nM

Compound: CC(C)(C)c1nc(N2CCC(F)(F)C2)c2nn(Cc3cccc(F)c3Cl)nc2n1 [Example 30, 5-tert-Butyl-2-(2-chloro-3-fluoro-benzyl)-7-(3,3-difluoro-pyrrolidin-1-yl)-2H-[1,2,3]triazolo[4,5-d]pyrimidine]
- EC50 (human CB2 receptors): 0.7 nM

Compound: CC(C)(C)c1nc(N2CCC(F)(F)C2)c2nn(Cc3cc(F)ccc3Cl)nc2n1 [Example 31, 5-tert-Butyl-2-(2-chloro-5-fluoro-benzyl)-7-(3,3-difluoro-pyrrolidin-1-yl)-2H-[1,2,3]triazolo[4,5-d]pyrimidine]
- EC50 (human CB2 receptors): 0.5 nM

Compound: CC(C)(C)c1nc(N2CCC(F)(F)C2)c2nn(C3COC3)nc2n1 [Example 32, 5-tert-Butyl-7-(3,3-difluoro-pyrrolidin-1-yl)-2-oxetan-3-yl-2H-[1,2,3]triazolo[4,5-d]pyrimidine]
- EC50 (human CB2 receptors): 19 nM
